Source: PubChem BioAssay (NCI)
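Five concentrations, 48 hours, 96-well plates. TGI denotes the concentration required for complete inhibition of growth.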

How the values were obtained:
Test in all cases: NCI-60 cell line screen, 48 h
[1] = tested on: UO-31 renal
[2] = tested on: MCF7 breast
[3] = tested on: HT29 colon
[4] = tested on: SNB-75 CNS
[5] = tested on: IGROV1 ovarian
[6] = tested on: EKVX NSCLC
[7] = tested on: NCI-H460 lung
[8] = tested on: HCT-15 colon
[9] = tested on: SW-620 colon
[10] = tested on: OVCAR-8 ovarian
[11] = tested on: HOP-92 NSCLC
[12] = tested on: NCI-H522 lung
[13] = tested on: T-47D breast
[14] = tested on: SF-539 CNS
[15] = tested on: MALME-3M melanoma
[16] = tested on: CAKI-1 renal
[17] = tested on: RXF 393 renal
[18] = tested on: SF-268 CNS
[19] = tested on: OVCAR-4 ovarian
[20] = tested on: UACC-62 melanoma

Row | SMILES | TGI [1] | TGI [2] | TGI [3] | TGI [4] | TGI [5] | TGI [6] | TGI [7] | TGI [8] | TGI [9] | TGI [10] | TGI [11] | TGI [12] | TGI [13] | TGI [14] | TGI [15] | TGI [16] | TGI [17] | TGI [18] | TGI [19] | TGI [20]
1 | CN(C)c1ccc(/C=C2/SC(=S)NC2=O)cc1 | > 100 µM | > 100 µM | > 100 µM | > 100 µM | > 100 µM | > 100 µM | > 100 µM | > 100 µM | > 100 µM | > 100 µM | > 100 µM | > 100 µM | > 100 µM | > 100 µM | > 100 µM | > 100 µM | > 100 µM | > 100 µM | > 100 µM | > 100 µM
2 | C[n+]1c2ccccc2c(CNc2ccc(S(=O)(=O)N=C(N)N)cc2)c2ccccc21 | 45.5 µM |  | 49.8 µM | 39.9 µM | 66.6 µM | 64.1 µM | 15 µM | 32.3 µM | 56.8 µM | 55.4 µM | 54.3 µM | 32.3 µM |  | 17 µM | 63.1 µM | 19.9 µM | 34.1 µM | > 100 µM | > 100 µM | 42.1 µM
3 | S=C1SC(=Nc2ccccc2)C(=Nc2ccccc2)N1c1ccccc1 | > 100 µM | > 100 µM | > 100 µM | 73.7 µM | > 100 µM |  | > 100 µM | > 100 µM |  | > 100 µM |  | > 100 µM | > 100 µM |  | > 100 µM | > 100 µM | > 100 µM |  | > 100 µM | > 100 µM
4 | Cc1cc(NC(=S)Nc2ccccc2)c(NC(=S)Nc2ccccc2)cc1C | > 74.6 µM | 98.6 µM | > 100 µM | > 94.7 µM | > 100 µM | > 100 µM | > 61.7 µM | > 100 µM | > 100 µM | > 100 µM | > 100 µM | 32.4 µM |  | 50.6 µM | > 100 µM | > 89.6 µM | > 80.8 µM | > 100 µM | > 100 µM | > 100 µM
5 | COC(=O)CCC(=O)CC(=O)C1=NS(=O)(=O)c2nc(S(N)(=O)=O)c(Cl)cc2N1 | > 100 µM |  | > 100 µM | > 100 µM | > 100 µM | > 100 µM | > 100 µM | > 100 µM |  | > 100 µM | > 100 µM | > 100 µM |  | > 100 µM | > 100 µM | > 100 µM | > 100 µM | > 100 µM | > 100 µM | > 100 µM
6 | CC(C)(C)NCc1cc(Nc2ccnc3cc(Cl)ccc23)cc(-c2ccc(Cl)cc2)c1O | 18.1 µM | 3.13 µM | 4.42 µM | 5.13 µM | 7.18 µM | 14.8 µM | 8.18 µM | 9.96 µM | 5.3 µM | 14.8 µM | 7.08 µM | 7.51 µM | 13.3 µM | 3.28 µM | 3.28 µM | 10.6 µM | 4.66 µM | 16.2 µM | 14.5 µM | 3.85 µM
7 | COCc1nc2c(OC)cc(-c3nc4nc(N5CCN(C)CC5)ccc4[nH]3)c(OC)c2[nH]1 | > 100 µM | > 100 µM | > 100 µM | > 100 µM | > 100 µM | > 100 µM | > 100 µM | > 100 µM | > 100 µM | > 100 µM | > 100 µM | > 100 µM | > 100 µM |  | 44.2 µM | > 100 µM | > 100 µM | > 100 µM | > 100 µM | > 100 µM
8 | COCO[C@@H]1C[C@H]2C(O)Nc3ccccc3C(=O)N2C1 (stereo not given in full) | > 100 µM | > 100 µM | > 100 µM | > 100 µM | > 100 µM | > 100 µM | > 100 µM | > 100 µM | > 100 µM | > 100 µM | > 100 µM |  | > 100 µM | > 100 µM |  | > 100 µM | > 100 µM | > 100 µM | > 100 µM | > 100 µM
9 | O=c1[nH]c(Nc2ccc(F)c(Cl)c2)nc2nc[nH]c12 | > 100 µM | > 100 µM | > 100 µM | 97.8 µM | > 100 µM | > 100 µM | > 100 µM | > 100 µM | > 100 µM | > 100 µM | > 100 µM | > 100 µM | > 100 µM | > 100 µM | > 100 µM | > 100 µM |  | > 100 µM | > 100 µM | > 100 µM
10 | COc1cc2c(cc1OCCCOc1cc(-c3ccc(F)cc3)nc(C)n1)N=C[C@@H]1CCCN1C2=O | 38.7 µM | > 100 µM | > 100 µM | 49.1 µM | 44.8 µM | 39.3 µM | > 100 µM | 25.8 µM | 64 µM | > 100 µM | > 100 µM | 37.2 µM | > 100 µM | 48.7 µM | 27.3 µM | 31.9 µM | 54.3 µM | 36.4 µM | > 100 µM | 28.7 µM
